Results reported in US6080573A, “Enzymatic oxidation process” (Lever Brothers Company, Division of Conopco, Inc., priority 1996, dated 2000).

Tests used:
[1] = test system: peroxidase; test: Peroxidase bleach enhancement: bleaching of Reactive Black 5; assay type: biochemical, Hormographiella species; conditions: pH 9, 25° C.; for OD reading at 590 nm (Reactive Black 5): tyrosine 200 μM or peptide 100 μM
Protocol: (§1) Dye bleach experiments were performed using a partially purified peroxidase derived from an Hormographiella species. The enzyme was purified by ultrafiltration from the fermentation broth, followed by ion-exchange chromatography using Q-Sepharose (Pharmacia) at pH 7. Enzyme activity is expressed as ABTS (2,2'-azino-bis(3-ethylbenzothiazoline-6-sulphonic acid) units. One ABTS unit represents the amount of enzyme which oxidizes ABTS, resulting in an increase of 1 optical density at 418 nm. Conditions for the activity assay were 2 mM ABTS, 1 mM H2 O2, 20 mM Tris, pH 9.
(§2) Bleaching experiments were conducted at 25° C. in 20 mM Phosphate buffer, set at pH 9. Added peroxidase activity was 60 ABTS units per millilitre. The peptide GGSCGYHYQHCGQG (one letter amino acid code) was added as a peroxidase enhancer at a concentration of 100 μM. The Reactive Black 5 concentration was 30 μM, and the H2 O2 concentration was 250 μM.
(§3) Bleaching of Reactive Black 5 was monitored by the decrease in optical density at 590 nm. The enhancing activity of the peptide was compared to that of the free amino acid tyrosine. As the peptide contains 2 tyrosine residues, 200 μM of the amino acid was added, as a comparison to 100 μM of peptide.

[2] = test system: peroxidase; test: Peroxidase bleach enhancement: bleaching of red beet solution; assay type: biochemical, Hormographiella species; conditions: conditions as in example 3
Protocol: as §1, §2, §3
In order to study the selectivity of the peptide enhanced reaction, the bleaching of a red beet solution with the system was assayed. The extract of red beet is, as with dyes, susceptible the action of peroxidase enhancers. […] Experimental conditions are as in example 3.

[3] = Dye transfer prevention: washing a coloured swatch in the presence of a white pick-up swatch with peroxidase; set-up: key to ΔE (colour difference): CIELAB colour difference ΔE vs control swatch without peptide; key to ΔL (whiteness): difference in CIELAB L* (lightness) vs control swatch; conditions: for ΔE (colour difference) / ΔL (whiteness): pH 9, 30 minutes, 40° C., versus control swatch without peptide enhancer; for dye transfer prevention / effect on white swatch: result in words
Protocol: The potential of the enzymatic system to prevent dye transfer was assessed by washing a coloured swatch in the presence of a white pick-up swatch. The experiments were performed in 25 ml Phosphate buffer, pH 9, containing the two swatches of 5×5 cm. The experiments were performed using a partially purified peroxidase derived from an Hormographiella species. Experiments were performed in the presence of 12 ABTS units/ml. The fabrics were agitated in the wash solution (25 ml) for 30 minutes at 40° C. The fabrics were line dried and the reflectance spectra were measured using a Minolta spectrometer. The data thereby obtained was transferred to the CIELAB L*a*b* colour space parameters. In this colour space, L* indicates lightness and a* and b* are the chromaticity coordinates. The colour differences between the control swatch, without addition the peptide enhancer, and the swatches washed in the presence of different concentrations of peptide, were expressed as ΔE, calculated from the following equation: [formula]

[4] = ELISA: binding of alkaline phosphatase-Reactive Red 6 conjugate (AP-RR6) to peptide-coated plates; conditions: plates coated with 1 mg/ml peptide, p-nitro-phenyl-phosphate, 30 minutes
Protocol: The specific binding of peptide #1 (NH2-GGSCGYHYQHCGQG-COOH) to the dye Reactive Red 6 was measured (the peptide contains one disuphide bridge through the cysteine residues, sequence of the peptides is given in one letter amino acid codes).
(§4) For the detection of binding, the enzyme Alkaline Phosphatase (AP, 2.5 mg/ml) was conjugated with the reactive dye Reactive Red 6 (RR6, 1.25 mM), by incubation of the enzyme with the dye during 2 hours, at room temperature in Borate buffer, 0.1 M, 0.15 M NaCl, pH 8.5. The dye thereby becomes covalently linked to the amino groups of the enzyme by its triazine unit. Free dye was separated from the enzyme conjugate by gel filtration (PD-10 column, Pharmacia). Elisa plates (Polysorb, Nunc) were coated overnight with 100 μl of a 1 mg/ml peptide solution in Phosphate buffer, 150 mM NaCl, pH 7.4 (PBS). The peptide coated ELISA plates were blocked with 2% Bovine Serum Albumin (BSA) in PBS for 1 hour, room temperature. The Alkaline Phosphatase--RR6 conjugate (AP-RR6) was then incubated for 1 hour, room temperature, in incubation buffer (0.2 M Tris, 20 mM NaCl, 1% PEG 6000, 5% BSA). The plates were washed plates 3 times with wash buffer (0.2 M Tris, 60 mM Citrate, 0.1 M NaCl, 0.05% Tween) and 3 times with demineralized water. Bound Alkaline Phosphatase (AP) was then detected by incubation with the substrate p-nitro-phenyl-phosphate. […] As a control, Alkaline Phosphatase, not conjugated to the dye, was used.

[5] = test system: Alkaline Phosphatase; test: ELISA control: binding of unconjugated Alkaline Phosphatase (AP) to peptide-coated plates; conditions: control: Alkaline Phosphatase not conjugated to the dye; plates coated with 1 mg/ml peptide; 30 minutes
Protocol: as §4

| Compound | OD reading at 590 nm (Reactive Black 5) ([1]; 0 minutes after incubation) | OD reading at 590 nm (Reactive Black 5) ([1]; 2 minutes after incubation) | OD reading at 590 nm (Reactive Black 5) ([1]; 4 minutes after incubation) | OD reading at 590 nm (Reactive Black 5) ([1]; 6 minutes after incubation) | OD reading at 590 nm (Reactive Black 5) ([1]; 8 minutes after incubation) | OD reading at 590 nm (Reactive Black 5) ([1]; 10 minutes after incubation) | OD reading at 590 nm (Reactive Black 5) ([1]; 12 minutes after incubation) | OD reading at 590 nm (Reactive Black 5) ([1]; 14 minutes after incubation) | bleaching of red beet solution (optical density) ([2]; 0 minutes after incubation) | bleaching of red beet solution (optical density) ([2]; 2 minutes after incubation) | bleaching of red beet solution (optical density) ([2]; 4 minutes after incubation) | bleaching of red beet solution (optical density) ([2]; 6 minutes after incubation) | bleaching of red beet solution (optical density) ([2]; 8 minutes after incubation) | bleaching of red beet solution (optical density) ([2]; 10 minutes after incubation) | bleaching of red beet solution (optical density) ([2]; 12 minutes after incubation) | bleaching of red beet solution (optical density) ([2]; 14 minutes after incubation) | ΔE (colour difference) ([3]; 25 μM) | ΔL (whiteness) ([3]; 25 μM) | OD 450 nm values, AP-RR6 [4] | OD 450 nm values, AP [5] | further results |
| --- | --- | --- | --- | --- | --- | --- | --- | --- | --- | --- | --- | --- | --- | --- | --- | --- | --- | --- | --- | --- | --- |
| N[C@@H](Cc1ccc(O)cc1)C(=O)O [tyrosine] | 0.651 | 0.606 | 0.580 | 0.559 | 0.540 | 0.523 | 0.507 | 0.494 | 1.082 | 1.076 | 1.06 | 1.022 | 0.906 | 0.739 | 0.591 | 0.488 | 0.55 | -0.5 |  |  | ΔE (colour difference) ([3]; 50 μM): 0.63; ΔL (whiteness) ([3]; 50 μM): -0.6; ΔE (colour difference) ([3]; 100 μM): 2.05; ΔL (whiteness) ([3]; 100 μM): -2.0; dye transfer prevention / effect on white swatch [3]: darkening of the white swatch (negative ΔL) |
| Arg-Arg [Arg--Arg] |  |  |  |  |  |  |  |  |  |  |  |  |  |  |  |  |  |  | 0.09 | 0.003 |  |
| Lys-Lys-Lys [Lys--Lys--Lys] |  |  |  |  |  |  |  |  |  |  |  |  |  |  |  |  |  |  | 0.31 | 0.023 |  |
| NH2-GGSCGYHYQHCGQG-COOH (H-GGSCGYHYQHCGQG-OH; cysteine pairing not given here) [Peptide #1] | 0.651 | 0.430 | 0.344 | 0.294 | 0.263 | 0.241 | 0.227 | 0.216 | 1.091 | 1.083 | 1.063 | 1.016 | 0.881 | 0.709 | 0.567 | 0.477 | 2.46 | 2.40 | 2.36 | 0.047 | bleaching activity of the peroxidase in the presence of the peptide ([1]; result in words): enhanced bleaching activity; reaction enhancement over tyrosine, red beet solution ([2]; result in words): there is not reaction enhancement of the peptide over tyrosine; ΔE (colour difference) ([3]; 50 μM): 2.85; ΔL (whiteness) ([3]; 50 μM): 2.80; ΔE (colour difference) ([3]; 100 μM): 3.62; ΔL (whiteness) ([3]; 100 μM): 3.50; dye transfer prevention / effect on white swatch [3]: clear dye transfer prevention benefit, resulting in a lighter white swatch |
| Val-Gly-Ser-Glu (VGSE; printed: Val-Gly-Ser-Glu) [V--G--S--E] |  |  |  |  |  |  |  |  |  |  |  |  |  |  |  |  |  |  | 0.03 | 0.003 |  |
